Drawing on article PMC2929374 (Chemmedchem, 2009), this text covers IC50 and Ki for 26 compounds.

T1 sequence (P39051 whole entry): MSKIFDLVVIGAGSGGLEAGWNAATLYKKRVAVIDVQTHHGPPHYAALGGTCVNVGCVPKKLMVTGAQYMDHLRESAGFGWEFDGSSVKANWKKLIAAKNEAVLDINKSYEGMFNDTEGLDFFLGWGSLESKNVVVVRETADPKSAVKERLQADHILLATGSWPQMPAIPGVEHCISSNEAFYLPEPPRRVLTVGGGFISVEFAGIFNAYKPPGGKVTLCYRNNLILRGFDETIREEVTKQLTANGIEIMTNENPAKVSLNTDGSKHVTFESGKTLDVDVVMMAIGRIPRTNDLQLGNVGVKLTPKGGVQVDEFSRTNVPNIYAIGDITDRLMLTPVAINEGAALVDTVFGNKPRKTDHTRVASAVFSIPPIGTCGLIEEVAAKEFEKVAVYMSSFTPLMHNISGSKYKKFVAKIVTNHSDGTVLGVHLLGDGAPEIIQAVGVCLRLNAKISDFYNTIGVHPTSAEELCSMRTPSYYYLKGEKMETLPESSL

One assay concerns the target T1, T. brucei TryR (trypanothione reductase; TyrR) (Trypanosoma brucei, UniProt P39051). In words: DTNB-coupled TryR assay, absorbance, 384-well. Type of assay: biochemical.
Details: not given
As a reminder, the IC50 is the concentration at which inhibition is half-maximal. On to `c1ccc(-c2ccc(C3(N4CCCCC4)CCCCC3)cc2)cc1` [compound 4], for which the IC50 was above 100 µM.
On the same count and under the same terms, the same measure for `c1ccc2oc(C3(N4CCCCC4)CCCCC3)cc2c1` [compound 5]: 4.4 µM; for `c1ccc2c(C3(N4CCCCC4)CCCCC3)cccc2c1` [compound 6]: above 100 µM.
`c1ccc2cc(C3(N4CCCCC4)CCCCC3)ccc2c1` [compound 7] registered an IC50 of 28 µM.
On the same count and under the same terms, the figure for `c1ccc2sc(C3(N4CCCCC4)CCCCC3)nc2c1` [compound 9] is above 100 µM; for `Brc1ccc2sc(C3(N4CCCCC4)CCCCC3)cc2c1` [compound 12, 1-(1-(5-Bromo-benzo[b]thiophen-2-yl)cyclohexyl)piperidine] it is above 100 µM; for `c1ccc2sc(C3(N4CCOCC4)CCCCC3)cc2c1` [compound 15] it is 11 µM.
Consider `CN1CCN(C2(c3cc4ccccc4s3)CCCCC2)CC1` [compound 16], for which the IC50 was determined as 10 µM.
The same measure, in the same setting: the same measure for `c1ccc2sc(C3(N4CCCCC4)CCCC3)cc2c1` [compound 17]: 11 µM; for `CN1CCC(c2cc3ccccc3s2)(N2CCCCC2)CC1` [compound 18]: 0.93 µM; for `CC(C)(c1cc2ccccc2s1)N1CCCCC1` [compound 19]: 15 µM.
The same measure, in the same setting: the figure for `O=C(c1cc2ccccc2s1)C1(N2CCCCC2)CCCCC1` [compound 24, Benzo[b]thiophen-2-yl(1-(piperidin-1-yl)cyclohexyl)methanone] is above 100 µM.
On the same count and under the same terms, the same measure for `OC(c1ccccc1)(c1ccccc1)C1(N2CCCCC2)CCCCC1` [compound 25, Diphenyl(1-(piperidin-1-yl)cyclohexyl)methanol]: above 100 µM.
Turning to `CC(C)(C)OC(=O)N1CCC(c2cc3ccccc3s2)(N2CCCCC2)CC1` [compound 27, tert-Butyl 4′-(benzo[b]thiophen-2-yl)-1,4′-bipiperidine-1′-carboxylate], the IC50 is above 100 µM.
The same measure, in the same setting: the same measure for `c1ccc2sc(C3(N4CCCCC4)CCNCC3)cc2c1` [compound 28, 4′-(Benzo[b]thiophen-2-yl)-[1,4′]bipiperidine]: 5.1 µM; for `CC(=O)N1CCC(c2cc3ccccc3s2)(N2CCCCC2)CC1` [compound 29]: 6.6 µM.
Still for that read-out and setting: the figure for `O=C(c1ccccc1)N1CCC(c2cc3ccccc3s2)(N2CCCCC2)CC1` [compound 30, (4′-(Benzo[b]thiophen-2-yl)-1,4′-bipiperidinyl-1′-yl)(phenyl)methanone] is 13 µM.
Same read-out and setting: the figure for `O=C(Cc1ccccc1)N1CCC(c2cc3ccccc3s2)(N2CCCCC2)CC1` [compound 31, 1-(4′-(Benzo[b]thiophen-2-yl)-1,4′-bipiperidinyl-1′-yl)-2-phenylethanone] is 12 µM; for `CN(C)CC(=O)N1CCC(c2cc3ccccc3s2)(N2CCCCC2)CC1` [compound 32, 1-(4′-(Benzo[b]thiophen-2-yl)-1,4′-bipiperidinyl-1′-yl)-2-(dimethylamino)ethanone] it is 2.6 µM; for `c1ccc2sc(C3(N4CCCCC4)CCN(CCN4CCOCC4)CC3)cc2c1` [compound 33, 4-(2-(4′-(Benzo[b]thiophen-2-yl)-1,4′-bipiperidin-1′-yl)ethyl)morpholine] it is 4.4 µM.
Compound `c1ccc(CN2CCC(c3cc4ccccc4s3)(N3CCCCC3)CC2)cc1` [compound 34, 4′-(Benzo[b]thiophen-2-yl)-1′-benzyl-1,4′-bipiperidine] had an IC50 of 19 µM.
Still for that read-out and setting: the figure for `CN(C)CCN1CCC(c2cc3ccccc3s2)(N2CCCCC2)CC1` [compound 35, 2-(4′-(Benzo[b]thiophen-2-yl)-1,4′-bipiperidinyl-1′-yl)-N,N-dimethylethanamine] is above 100 µM.

The same assay, now with this note: read-out: TryR IC50; pH 7.4, 40 mM HEPES, 1 mM EDTA, 6 μM trypanothione, 50 μM DTNB, 150 μM NADPH, room temperature.
Consider `c1ccc2sc(C3(N4CCCCC4)CCCCC3)cc2c1` [compound 1, 1-(1-(Benzo[b]thiophen-2-yl)cyclohexyl)piperidine], for which the IC50 turned out to be 3.3 µM.
The same measure, in the same setting: the same measure for `c1csc(C2(N3CCCCC3)CCCCC2)c1` [compound 3]: above 100 µM; for `c1ccc2sc(C3(N4CCCC4)CCCCC3)cc2c1` [compound 13]: 0.91 µM.
Same read-out and setting: the same measure for `CCN(CC)C1(c2cc3ccccc3s2)CCCCC1` [compound 14]: 5 µM.

The target in the next assay is T1, T. brucei TryR (trypanothione reductase; TyrR). In words: DTNB-coupled kinetics, global fit.
Details: not given
The class given is biochemical.
In general, Ki refers to the dissociation constant of the complex between target and ligand, obtained from inhibition or displacement. Lower therefore signals higher affinity. `c1ccc2oc(C3(N4CCCCC4)CCCCC3)cc2c1` [compound 5] showed a Ki of 1.46 µM.
